Experimental data published in article PMC10046369, “Low-Affinity/High-Selectivity Dopamine Transport Inhibition Sufficient to Rescue Cognitive Functions in the Aging Rat” (Biomolecules, 2023).

Experiments:
Experiment in all cases: biochemical
Set-up in all cases: KINOMEscan competition binding panel, per cent of control
Settings in all cases: read-out: %Ctrl @ 2800nM
[1] = target: T1, ABL1(Q252H)-nonphosphorylated (Homo sapiens, UniProt P00519, Q252H)
T1 construct: nonphosphorylated
In short: (§1)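 Values are expressed as percent of control, calculated as ((test − positive control)/(negative control − positive control)) × 100, so lower numbers mean stronger hits. Binding was measured by KINOMEscan competition assay in a 450-kinase human panel including disease mutants, using the contractor's validated protocol.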

ACVR1B = ACVR1B (Homo sapiens, UniProt P36896)
In short: as §1

ASK2 = target: T2, ASK2 (Homo sapiens, UniProt O95382)
T2 construct: gene MAP3K6
In short: as §1

BRSK2 = BRSK2 (Homo sapiens, UniProt Q8IWQ3)
In short: as §1

CDK5 = CDK5 (Homo sapiens, UniProt Q00535)
In short: as §1

CDK8 = CDK8 (Homo sapiens, UniProt P49336)
In short: as §1

CLK1 = CLK1 (Homo sapiens, UniProt P49759)
In short: as §1

EPHA7 = EPHA7 (Homo sapiens, UniProt Q15375)
In short: as §1

EPHB2 = EPHB2 (Homo sapiens, UniProt P29323)
In short: as §1

FLT1 = FLT1 (Homo sapiens, UniProt P17948)
In short: as §1

ICK = target: T3, ICK (Homo sapiens, UniProt Q9UPZ9)
T3 construct: gene CILK1
In short: as §1

KIT(D816V) = KIT(D816V) (Homo sapiens, UniProt P10721, D816V)
In short: as §1

LYN = LYN (Homo sapiens, UniProt P07948)
In short: as §1

MST4 = target: T4, MST4 (Homo sapiens, UniProt Q9P289)
T4 construct: gene STK26
In short: as §1

PHKG1 = PHKG1 (Homo sapiens, UniProt Q16816)
In short: as §1

PIK3C2G = PIK3C2G (Homo sapiens, UniProt O75747)
In short: as §1

PIKFYVE = PIKFYVE (Homo sapiens, UniProt Q9Y2I7)
In short: as §1

PIP5K2B = target: T5, PIP5K2B (Homo sapiens, UniProt P78356)
T5 construct: gene PIP4K2B
In short: as §1

PRKG1 = PRKG1 (Homo sapiens, UniProt Q13976)
In short: as §1

PRKX = PRKX (Homo sapiens, UniProt P51817)
In short: as §1

RIPK1 = RIPK1 (Homo sapiens, UniProt Q13546)
In short: as §1

[2] = target: T6, RSK4(Kin.Dom.1-N-terminal) (Homo sapiens, UniProt Q9UK32)
T6 construct: gene RPS6KA6; Kin.Dom.1-N-terminal
In short: as §1

SBK1 = SBK1 (Homo sapiens, UniProt Q52WX2)
In short: as §1

SGK3 = SGK3 (Homo sapiens, UniProt Q96BR1)
In short: as §1

SYK = SYK (Homo sapiens, UniProt P43405)
In short: as §1

TRKB = target: T7, TRKB (Homo sapiens, UniProt Q16620)
T7 construct: gene NTRK2
In short: as §1

T2 sequence (O95382 whole entry): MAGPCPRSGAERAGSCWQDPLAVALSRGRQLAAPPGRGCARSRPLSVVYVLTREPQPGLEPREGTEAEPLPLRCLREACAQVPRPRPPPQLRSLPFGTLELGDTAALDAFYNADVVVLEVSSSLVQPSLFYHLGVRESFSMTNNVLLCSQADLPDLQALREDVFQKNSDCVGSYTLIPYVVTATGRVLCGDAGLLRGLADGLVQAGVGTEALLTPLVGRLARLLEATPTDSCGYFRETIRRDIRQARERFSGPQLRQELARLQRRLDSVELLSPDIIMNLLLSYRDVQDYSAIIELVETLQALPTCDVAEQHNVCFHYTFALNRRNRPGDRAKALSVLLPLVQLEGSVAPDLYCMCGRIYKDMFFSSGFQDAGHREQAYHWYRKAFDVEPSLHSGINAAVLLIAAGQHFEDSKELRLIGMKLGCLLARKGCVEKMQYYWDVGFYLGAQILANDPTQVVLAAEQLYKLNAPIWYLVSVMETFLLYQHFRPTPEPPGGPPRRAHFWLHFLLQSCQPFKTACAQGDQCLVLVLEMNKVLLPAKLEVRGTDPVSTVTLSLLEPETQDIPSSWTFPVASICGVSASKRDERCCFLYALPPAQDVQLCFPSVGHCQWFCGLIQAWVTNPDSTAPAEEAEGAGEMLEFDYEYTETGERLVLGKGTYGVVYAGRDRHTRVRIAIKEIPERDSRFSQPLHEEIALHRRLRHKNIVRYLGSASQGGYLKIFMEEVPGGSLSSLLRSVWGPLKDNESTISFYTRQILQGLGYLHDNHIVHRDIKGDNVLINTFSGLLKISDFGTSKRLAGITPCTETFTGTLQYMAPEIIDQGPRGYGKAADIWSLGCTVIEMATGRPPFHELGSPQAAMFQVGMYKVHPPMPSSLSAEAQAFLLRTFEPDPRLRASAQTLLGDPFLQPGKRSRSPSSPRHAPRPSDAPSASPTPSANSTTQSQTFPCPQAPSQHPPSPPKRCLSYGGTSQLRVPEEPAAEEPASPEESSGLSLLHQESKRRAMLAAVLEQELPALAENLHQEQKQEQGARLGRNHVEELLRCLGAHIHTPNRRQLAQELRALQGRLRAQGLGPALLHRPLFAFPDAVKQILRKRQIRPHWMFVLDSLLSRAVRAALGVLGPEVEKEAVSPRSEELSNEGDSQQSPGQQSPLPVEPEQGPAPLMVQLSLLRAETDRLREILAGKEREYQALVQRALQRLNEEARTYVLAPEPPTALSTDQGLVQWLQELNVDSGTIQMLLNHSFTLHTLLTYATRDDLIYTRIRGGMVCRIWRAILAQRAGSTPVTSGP
Chain of EPHB2 (P29323 whole entry): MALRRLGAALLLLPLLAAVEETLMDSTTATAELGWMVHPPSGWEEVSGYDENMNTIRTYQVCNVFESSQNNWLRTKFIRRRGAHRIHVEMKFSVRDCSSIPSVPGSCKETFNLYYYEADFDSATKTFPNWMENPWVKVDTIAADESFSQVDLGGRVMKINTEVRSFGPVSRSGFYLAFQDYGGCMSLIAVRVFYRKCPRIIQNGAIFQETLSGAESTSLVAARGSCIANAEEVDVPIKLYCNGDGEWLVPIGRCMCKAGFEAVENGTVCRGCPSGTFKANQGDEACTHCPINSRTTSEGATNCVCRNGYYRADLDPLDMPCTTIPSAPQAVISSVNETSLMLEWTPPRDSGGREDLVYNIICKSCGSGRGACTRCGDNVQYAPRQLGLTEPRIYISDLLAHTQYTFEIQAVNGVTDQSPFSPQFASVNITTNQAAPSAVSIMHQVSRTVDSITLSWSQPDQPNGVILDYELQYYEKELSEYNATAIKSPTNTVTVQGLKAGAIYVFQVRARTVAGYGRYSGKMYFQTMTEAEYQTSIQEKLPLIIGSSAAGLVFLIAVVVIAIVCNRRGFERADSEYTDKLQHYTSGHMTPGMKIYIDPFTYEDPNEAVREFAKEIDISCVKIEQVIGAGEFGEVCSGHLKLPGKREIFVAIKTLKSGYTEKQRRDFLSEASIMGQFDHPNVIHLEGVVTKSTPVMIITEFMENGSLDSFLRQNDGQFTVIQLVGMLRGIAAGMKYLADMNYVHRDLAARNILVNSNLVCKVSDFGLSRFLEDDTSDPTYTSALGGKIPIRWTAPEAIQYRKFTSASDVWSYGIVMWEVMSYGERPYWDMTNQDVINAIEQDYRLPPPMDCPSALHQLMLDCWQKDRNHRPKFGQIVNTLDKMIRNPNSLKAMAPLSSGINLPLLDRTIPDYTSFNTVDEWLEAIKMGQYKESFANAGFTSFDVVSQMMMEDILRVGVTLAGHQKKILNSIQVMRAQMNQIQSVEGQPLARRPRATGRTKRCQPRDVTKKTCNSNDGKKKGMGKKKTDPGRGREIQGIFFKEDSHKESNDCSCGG
Chain of RIPK1 (Q13546 whole entry): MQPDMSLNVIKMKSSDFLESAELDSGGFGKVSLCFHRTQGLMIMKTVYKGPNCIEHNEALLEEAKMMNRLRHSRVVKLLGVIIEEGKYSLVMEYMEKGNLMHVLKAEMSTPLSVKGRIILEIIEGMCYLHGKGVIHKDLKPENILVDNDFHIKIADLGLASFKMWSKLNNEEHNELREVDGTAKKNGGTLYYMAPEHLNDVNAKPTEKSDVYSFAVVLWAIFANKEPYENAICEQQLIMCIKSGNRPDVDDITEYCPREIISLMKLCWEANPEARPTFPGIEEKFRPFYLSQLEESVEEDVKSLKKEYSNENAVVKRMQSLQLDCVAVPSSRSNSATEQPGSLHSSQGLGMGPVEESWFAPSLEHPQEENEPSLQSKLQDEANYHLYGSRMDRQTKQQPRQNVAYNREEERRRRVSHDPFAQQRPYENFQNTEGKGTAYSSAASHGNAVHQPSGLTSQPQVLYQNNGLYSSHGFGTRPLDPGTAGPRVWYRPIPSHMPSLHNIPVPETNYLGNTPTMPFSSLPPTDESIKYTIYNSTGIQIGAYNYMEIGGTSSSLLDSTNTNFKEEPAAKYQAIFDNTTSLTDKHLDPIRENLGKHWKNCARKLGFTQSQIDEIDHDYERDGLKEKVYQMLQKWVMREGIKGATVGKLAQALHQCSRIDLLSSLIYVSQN
T7 sequence (Q16620 whole entry): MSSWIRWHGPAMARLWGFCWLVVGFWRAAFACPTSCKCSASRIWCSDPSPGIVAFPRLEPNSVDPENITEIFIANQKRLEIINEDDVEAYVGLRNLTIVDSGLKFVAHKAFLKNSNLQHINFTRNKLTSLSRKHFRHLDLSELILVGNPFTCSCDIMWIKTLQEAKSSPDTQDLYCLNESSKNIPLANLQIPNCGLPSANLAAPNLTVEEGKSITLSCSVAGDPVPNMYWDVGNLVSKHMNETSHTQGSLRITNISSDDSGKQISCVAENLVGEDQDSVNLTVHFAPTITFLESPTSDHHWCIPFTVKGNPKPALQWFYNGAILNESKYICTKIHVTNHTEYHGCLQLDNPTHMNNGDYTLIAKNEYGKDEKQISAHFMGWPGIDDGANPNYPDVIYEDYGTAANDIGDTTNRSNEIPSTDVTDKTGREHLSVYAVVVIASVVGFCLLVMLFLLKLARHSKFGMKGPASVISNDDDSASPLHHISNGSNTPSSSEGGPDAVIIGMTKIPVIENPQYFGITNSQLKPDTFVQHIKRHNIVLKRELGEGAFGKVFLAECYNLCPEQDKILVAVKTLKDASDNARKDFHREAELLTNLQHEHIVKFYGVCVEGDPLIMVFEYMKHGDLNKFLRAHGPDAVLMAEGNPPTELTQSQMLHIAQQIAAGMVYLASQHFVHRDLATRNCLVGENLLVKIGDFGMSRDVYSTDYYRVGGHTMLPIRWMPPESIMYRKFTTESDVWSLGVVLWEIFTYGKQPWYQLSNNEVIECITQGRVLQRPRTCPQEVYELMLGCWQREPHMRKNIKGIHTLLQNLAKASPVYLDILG
Chain of PRKG1 (Q13976 whole entry): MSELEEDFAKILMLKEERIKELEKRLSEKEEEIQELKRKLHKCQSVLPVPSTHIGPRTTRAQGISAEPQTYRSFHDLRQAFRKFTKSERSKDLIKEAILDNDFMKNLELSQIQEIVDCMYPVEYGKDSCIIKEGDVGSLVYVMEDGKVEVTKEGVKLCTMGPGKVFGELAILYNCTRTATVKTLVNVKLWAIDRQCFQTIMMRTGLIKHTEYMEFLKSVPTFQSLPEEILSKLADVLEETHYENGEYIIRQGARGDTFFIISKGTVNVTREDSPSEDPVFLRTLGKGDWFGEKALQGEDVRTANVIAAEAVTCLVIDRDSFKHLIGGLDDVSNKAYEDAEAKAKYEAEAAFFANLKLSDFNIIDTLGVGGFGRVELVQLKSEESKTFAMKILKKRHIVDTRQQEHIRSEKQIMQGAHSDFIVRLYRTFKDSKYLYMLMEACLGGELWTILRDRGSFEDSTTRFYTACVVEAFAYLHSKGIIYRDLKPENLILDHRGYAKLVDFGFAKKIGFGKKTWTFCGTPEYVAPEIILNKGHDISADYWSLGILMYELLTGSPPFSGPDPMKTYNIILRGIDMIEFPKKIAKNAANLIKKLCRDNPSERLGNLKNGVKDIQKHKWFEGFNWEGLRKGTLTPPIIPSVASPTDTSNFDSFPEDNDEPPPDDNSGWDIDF
Chain of ACVR1B (P36896 whole entry): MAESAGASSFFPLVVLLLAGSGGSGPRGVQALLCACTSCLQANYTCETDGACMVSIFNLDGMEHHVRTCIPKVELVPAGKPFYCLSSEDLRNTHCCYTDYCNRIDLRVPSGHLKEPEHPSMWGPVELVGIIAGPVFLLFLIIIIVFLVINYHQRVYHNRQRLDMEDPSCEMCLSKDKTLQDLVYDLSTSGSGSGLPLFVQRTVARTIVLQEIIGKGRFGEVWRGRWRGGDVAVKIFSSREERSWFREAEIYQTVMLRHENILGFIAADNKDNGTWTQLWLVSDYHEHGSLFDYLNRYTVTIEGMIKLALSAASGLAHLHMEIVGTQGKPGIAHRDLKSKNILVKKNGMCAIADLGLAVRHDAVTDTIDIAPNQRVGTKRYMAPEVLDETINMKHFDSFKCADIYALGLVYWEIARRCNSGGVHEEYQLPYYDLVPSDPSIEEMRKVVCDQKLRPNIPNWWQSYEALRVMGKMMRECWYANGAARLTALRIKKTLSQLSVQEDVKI

## [O-][S@@+](Cc1cncs1)C(c1ccccc1)c1ccccc1 [S-CE-123, (S)-5-((Benzhydrylsulfinyl)Methyl)Thiazole]
[1]
  remaining binding at 2.8 µM: 66%
ACVR1B
  remaining binding at 2.8 µM: 100%
ASK2
  remaining binding at 2.8 µM: 100%
BRSK2
  remaining binding at 2.8 µM: 100%
CDK5
  remaining binding at 2.8 µM: 97%
CDK8
  remaining binding at 2.8 µM: 96%
CLK1
  remaining binding at 2.8 µM: 96%
EPHA7
  remaining binding at 2.8 µM: 96%
EPHB2
  remaining binding at 2.8 µM: 89%
FLT1
  remaining binding at 2.8 µM: 100%
ICK
  remaining binding at 2.8 µM: 91%
KIT(D816V)
  remaining binding at 2.8 µM: 97%
LYN
  remaining binding at 2.8 µM: 83%
MST4
  remaining binding at 2.8 µM: 100%
PHKG1
  remaining binding at 2.8 µM: 100%
PIK3C2G
  remaining binding at 2.8 µM: 66%
PIKFYVE
  remaining binding at 2.8 µM: 100%
PIP5K2B
  remaining binding at 2.8 µM: 100%
PRKG1
  remaining binding at 2.8 µM: 100%
PRKX
  remaining binding at 2.8 µM: 100%
RIPK1
  remaining binding at 2.8 µM: 80%
[2]
  remaining binding at 2.8 µM: 100%
SBK1
  remaining binding at 2.8 µM: 100%
SGK3
  remaining binding at 2.8 µM: 100%
SYK
  remaining binding at 2.8 µM: 100%
TRKB
  remaining binding at 2.8 µM: 100%
